Results taken from patent US12103952B2, “Methods for expressing proteins in axons” (Cornell University, priority 2010, dated 2024).

Assays:
pCREB = assay: Nuclear pCREB, pTrkA and pErk5 immunofluorescence after axonal NGF in compartmented cultures; assay type: cell-based, rat; details: 30 ng/ml NGF on axons, 20 min
From the text: FIGS. 9A-E are data showing that axonal CREB is required for CRE-dependent transcription and NGF-mediated DRG survival. (A) DRG axons in compartmented cultures were transfected with CREB siRNA in the axon compartment only, and CREB levels were detected using a CREB antibody. Axons crossing the compartment divider were retrogradely labeled with WGA-Alexa488. All compartments were maintained in NGF-containing media throughout the experiment. Scale bar, 50 μm. (B) Quantification of data in (A). Immunofluorescence levels in each compartment were normalized to fluorescence signals from cultures treated with non-targeting siRNA. *p<0.0001. Numbers on bars represent n axons per condition. […] After 48 hours, 30 ng/ml NGF was added to the axon compartment for 20 min, after which pCREB levels in nuclei were quantified by immunofluorescence. *p=0.0004. […]
FIGS. 10A-G are data showing selective CREB knockdown in distal axons, but not proximal axons determined by compartmentalized siRNA transfection. […] (B) Quantification of data in (A). FISH levels in each compartment were normalized to fluorescence signals from cultures treated with non-targeting siRNA. β-actin mRNA FISH signals were unaffected by CREB-specific siRNA. *p<0.001. […] (C) Transfection was as in FIG. 9A, except CREB knockdown was assessed by Western blot instead of immunofluorescence. […]

[1] = test system: CRE-dependent transcription; assay: CRE-luciferase adenovirus reporter in DRG neurons; assay type: cell-based, rat

Substance: NGF: nerve growth factor
- levels of pCREB in the nucleus (pCREB): increased levels of pCREB in the nucleus
- luciferase levels ([1]; axonal application of NGF): increased luciferase levels
- luciferase immunofluorescence ([1]; bath application of NGF, 0-100 ng/ml, 24 hours): dose-dependent increase in luciferase immunofluorescence
